Assay results: patent US20230016424A1, “HYBRID AMIDE DERIVATIVES OF AMPHOTERICIN B” (The Board of Trustees of the University of Illinois, priority 2019, published 2023)

Test system: C. albicans SN250, C. albicans, C. krusei, C. glabrata, C. tropicalis, A. fumigatus 91, 1163, 1100
Assay: Average MIC over the tested strains
Assay type: cell-based
Details: Table 7, C16 amide AmB variants

| Compound | MIC (Average Minimum Inhibition Concentration) [µM] |
| --- | --- |
| CC1C=CC=CC=CC=CC=CC=CC=CC(OC2OC(C)C(O)C(N)C2O)CC2OC(O)(CC(O)CC(O)C(O)CCC(O)CC(O)CC(=O)OC(C)C(C)C1O)CC(O)C2C(=O)NCC1CCCO1 (stereo not shown) [EZ] | 0.516 |
| O=CO [FA] | 0.516 |
| CC1C=CC=CC=CC=CC=CC=CC=CC(OC2OC(C)C(O)C(N)C2O)CC2OC(O)(CC(O)CC(O)C(O)CCC(O)CC(O)CC(=O)OC(C)C(C)C1O)CC(O)C2C(=O)NC1CN(C(N)=O)C1 (stereo not shown) [FB] | 0.516 |
| COC(=O)C1(NC(=O)C2C(O)CC3(O)CC(O)CC(O)C(O)CCC(O)CC(O)CC(=O)OC(C)C(C)C(O)C(C)C=CC=CC=CC=CC=CC=CC=CC(OC4OC(C)C(O)C(N)C4O)CC2O3)CNC1 (stereo not shown) [FC] | 0.516 |
| CC1C=CC=CC=CC=CC=CC=CC=CC(OC2OC(C)C(O)C(N)C2O)CC2OC(O)(CC(O)CC(O)C(O)CCC(O)CC(O)CC(=O)OC(C)C(C)C1O)CC(O)C2C(=O)NCCOCC(N)=O (stereo not shown) [FD] | 0.516 |
| CC1C=CC=CC=CC=CC=CC=CC=CC(OC2OC(C)C(O)C(N)C2O)CC2OC(O)(CC(O)CC(O)C(O)CCC(O)CC(O)CC(=O)OC(C)C(C)C1O)CC(O)C2C(=O)N1CCC(N)C1 (stereo not shown) [FE] | 0.531 |
| CC1C=CC=CC=CC=CC=CC=CC=CC(OC2OC(C)C(O)C(N)C2O)CC2OC(O)(CC(O)CC(O)C(O)CCC(O)CC(O)CC(=O)OC(C)C(C)C1O)CC(O)C2C(=O)NCCCCCO (stereo not shown) [FF] | 0.531 |
| CC1C=CC=CC=CC=CC=CC=CC=CC(OC2OC(C)C(O)C(N)C2O)CC2OC(O)(CC(O)CC(O)C(O)CCC(O)CC(O)CC(=O)OC(C)C(C)C1O)CC(O)C2C(=O)NC1(C(N)=O)CC1 (stereo not shown) [FG] | 0.531 |
| CC1C=CC=CC=CC=CC=CC=CC=CC(OC2OC(C)C(O)C(N)C2O)CC2OC(O)(CC(O)CC(O)C(O)CCC(O)CC(O)CC(=O)OC(C)C(C)C1O)CC(O)C2C(=O)N1CCNC(=O)C1 (stereo not shown) [FH] | 0.531 |
| CC1C=CC=CC=CC=CC=CC=CC=CC(OC2OC(C)C(O)C(N)C2O)CC2OC(O)(CC(O)CC(O)C(O)CCC(O)CC(O)CC(=O)OC(C)C(C)C1O)CC(O)C2C(=O)NC1CC(N)C(O)C(O)C1O (stereo not shown) [FI] | 0.172 |
| CC(O)CNC(=O)C1C(O)CC2(O)CC(O)CC(O)C(O)CCC(O)CC(O)CC(=O)OC(C)C(C)C(O)C(C)C=CC=CC=CC=CC=CC=CC=CC(OC3OC(C)C(O)C(N)C3O)CC1O2 (stereo not shown) [FJ] | 0.195 |
| CC1C=CC=CC=CC=CC=CC=CC=CC(OC2OC(C)C(O)C(N)C2O)CC2OC(O)(CC(O)CC(O)C(O)CCC(O)CC(O)CC(=O)OC(C)C(C)C1O)CC(O)C2C(=O)NC1C(O)OC(CO)C(O)C1O (stereo not shown) [FL] | 0.227 |
| CC1C=CC=CC=CC=CC=CC=CC=CC(OC2OC(C)C(O)C(N)C2O)CC2OC(O)(CC(O)CC(O)C(O)CCC(O)CC(O)CC(=O)OC(C)C(C)C1O)CC(O)C2C(=O)NC(CO)C(N)=O (stereo not shown) [FN] | 0.238 |
| CC1C=CC=CC=CC=CC=CC=CC=CC(OC2OC(C)C(O)C(N)C2O)CC2OC(O)(CC(O)CC(O)C(O)CCC(O)CC(O)CC(=O)OC(C)C(C)C1O)CC(O)C2C(=O)NC1CC(CO)C(O)C1O (stereo not shown) [FS] | 2.81 |
| CC1C=CC=CC=CC=CC=CC=CC=CC(OC2OC(C)C(O)C(N)C2O)CC2OC(O)(CC(O)CC(O)C(O)CCC(O)CC(O)CC(=O)OC(C)C(C)C1O)CC(O)C2C(=O)NC1C(O)C(O)OC(CO)C1O (stereo not shown) [FT] | 0.289 |
| CC1C=CC=CC=CC=CC=CC=CC=CC(OC2OC(C)C(O)C(N)C2O)CC2OC(O)(CC(O)CC(O)C(O)CCC(O)CC(O)CC(=O)OC(C)C(C)C1O)CC(O)C2C(=O)NC1C(O)OCC(O)C1O (stereo not shown) [FU] | 0.289 |
| CC1C=CC=CC=CC=CC=CC=CC=CC(OC2OC(C)C(O)C(N)C2O)CC2OC(O)(CC(O)CC(O)C(O)CCC(O)CC(O)CC(=O)OC(C)C(C)C1O)CC(O)C2C(=O)NCC(O)C(O)C(O)C(O)CO (stereo not shown) [FW] | 0.313 |
| CC1C=CC=CC=CC=CC=CC=CC=CC(OC2OC(C)C(O)C(N)C2O)CC2OC(O)(CC(O)CC(O)C(O)CCC(O)CC(O)CC(=O)OC(C)C(C)C1O)CC(O)C2C(=O)NCCn1cncn1 (stereo not shown) [FY] | 0.316 |
| CC1C=CC=CC=CC=CC=CC=CC=CC(OC2OC(C)C(O)C(N)C2O)CC2OC(O)(CC(O)CC(O)C(O)CCC(O)CC(O)CC(=O)OC(C)C(C)C1O)CC(O)C2C(=O)NC(CC(N)=O)C(N)=O (stereo not shown) [FZ] | 0.316 |
| CC1C=CC=CC=CC=CC=CC=CC=CC(OC2OC(C)C(O)C(N)C2O)CC2OC(O)(CC(O)CC(O)C(O)CCC(O)CC(O)CC(=O)OC(C)C(C)C1O)CC(O)C2C(=O)NCCCO (stereo not shown) [GA] | 0.320 |
| CC1C=CC=CC=CC=CC=CC=CC=CC(OC2OC(C)C(O)C(N)C2O)CC2OC(O)(CC(O)CC(O)C(O)CCC(O)CC(O)CC(=O)OC(C)C(C)C1O)CC(O)C2C(=O)NC1CCNC1=O (stereo not shown) [GC] | 0.320 |
| CC1C=CC=CC=CC=CC=CC=CC=CC(OC2OC(C)C(O)C(N)C2O)CC2OC(O)(CC(O)CC(O)C(O)CCC(O)CC(O)CC(=O)OC(C)C(C)C1O)CC(O)C2C(=O)NC(CO)C(N)=O (stereo not shown) [GF] | 0.324 |
| CC1C=CC=CC=CC=CC=CC=CC=CC(OC2OC(C)C(O)C(N)C2O)CC2OC(O)(CC(O)CC(O)C(O)CCC(O)CC(O)CC(=O)OC(C)C(C)C1O)CC(O)C2C(=O)NC1(C(N)=O)CNC1 (stereo not shown) [GG] | 0.328 |
| CC1C=CC=CC=CC=CC=CC=CC=CC(OC2OC(C)C(O)C(N)C2O)CC2OC(O)(CC(O)CC(O)C(O)CCC(O)CC(O)CC(=O)OC(C)C(C)C1O)CC(O)C2C(=O)NCC(O)CO (stereo not shown) [GH] | 0.329 |
| CNC(=O)C1C(O)CC2(O)CC(O)CC(O)C(O)CCC(O)CC(O)CC(=O)OC(C)C(C)C(O)C(C)C=CC=CC=CC=CC=CC=CC=CC(OC3OC(C)C(O)C(N)C3O)CC1O2 (stereo not shown) [GI] | 0.336 |
| CC(NC(=O)C1C(O)CC2(O)CC(O)CC(O)C(O)CCC(O)CC(O)CC(=O)OC(C)C(C)C(O)C(C)C=CC=CC=CC=CC=CC=CC=CC(OC3OC(C)C(O)C(N)C3O)CC1O2)C(N)=O (stereo not shown) [GJ] | 0.336 |
| CC1C=CC=CC=CC=CC=CC=CC=CC(OC2OC(C)C(O)C(N)C2O)CC2OC(O)(CC(O)CC(O)C(O)CCC(O)CC(O)CC(=O)OC(C)C(C)C1O)CC(O)C2C(=O)NC1CCCC(O)C1 (stereo not shown) [GM] | 0.344 |
| CNC(=O)CNC(=O)C1C(O)CC2(O)CC(O)CC(O)C(O)CCC(O)CC(O)CC(=O)OC(C)C(C)C(O)C(C)C=CC=CC=CC=CC=CC=CC=CC(OC3OC(C)C(O)C(N)C3O)CC1O2 (stereo not shown) [GN] | 0.344 |
